Active and inactive are the calls of the source. The rule behind the calls is not given here.
Columns and labels:
[1] = Drug metabolism in rat liver microsomes at 5 uM after 15 mins; type: ADME, Microsome; settings: read-out: Drug metabolism
[2] = Drug level in Swiss mouse brain at 10 mg/kg, sc after 1.5 hrs; type: ADME, organism-based; design: dose 10 mg/kg, route subcutaneous; settings: read-out: Drug uptake
Brain = experiment: Ratio of drug level in Swiss mouse brain at 10 mg/kg, sc after 1.5 hrs to drug level in Swiss mouse brain at 10 mg/kg, sc after 1 hr; type: ADME, organism-based; settings: in vivo
hERG = hERG (Homo sapiens, UniProt Q12809); experiment: Inhibition of human ERG expressed in HEK293 cells assessed as whole cell current at 3 uM after 5 mins by automated patch-clamp assay relative to control; type: cell-based; settings: HEK293 cells expressing hERG
[3] = Drug level in Swiss mouse brain at 10 mg/kg, sc after 1 hr; type: ADME, organism-based; design: dose 10 mg/kg, route subcutaneous; settings: read-out: Drug uptake
[4] = biological target: T1, Metabotropic glutamate receptor 2 (Homo sapiens, UniProt Q14416); experiment: Positive allosteric modulation of human mGlu2 receptor expressed in CHO cells assessed as glutamate-induced [35S]GTPgammaS binding after 30 mins by liquid scintillation counting relative to glutamate; type: functional, cell-based
Target sequence in this assay (Q14416 19-872 limits assumed): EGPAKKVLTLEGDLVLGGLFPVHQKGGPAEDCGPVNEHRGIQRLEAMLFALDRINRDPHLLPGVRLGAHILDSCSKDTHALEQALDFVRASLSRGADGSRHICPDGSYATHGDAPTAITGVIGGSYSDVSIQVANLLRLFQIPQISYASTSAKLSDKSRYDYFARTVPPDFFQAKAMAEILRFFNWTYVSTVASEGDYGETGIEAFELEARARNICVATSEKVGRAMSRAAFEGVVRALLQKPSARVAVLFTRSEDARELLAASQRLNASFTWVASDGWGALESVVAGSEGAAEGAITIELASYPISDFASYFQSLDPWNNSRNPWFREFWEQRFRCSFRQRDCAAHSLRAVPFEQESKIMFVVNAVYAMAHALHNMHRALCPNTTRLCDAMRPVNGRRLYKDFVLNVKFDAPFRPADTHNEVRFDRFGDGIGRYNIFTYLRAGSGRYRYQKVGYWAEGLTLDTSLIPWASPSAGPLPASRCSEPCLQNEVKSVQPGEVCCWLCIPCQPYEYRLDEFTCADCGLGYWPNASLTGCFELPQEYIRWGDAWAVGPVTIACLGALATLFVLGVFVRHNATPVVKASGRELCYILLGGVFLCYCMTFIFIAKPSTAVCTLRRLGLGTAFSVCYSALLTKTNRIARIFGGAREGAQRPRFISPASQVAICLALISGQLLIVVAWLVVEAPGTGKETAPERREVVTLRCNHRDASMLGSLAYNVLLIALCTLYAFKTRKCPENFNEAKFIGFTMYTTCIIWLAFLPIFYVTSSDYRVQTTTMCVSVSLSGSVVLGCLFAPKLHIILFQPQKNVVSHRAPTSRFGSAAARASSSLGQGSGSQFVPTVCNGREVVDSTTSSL

[5] = Ratio of drug level in brain to plasma in Swiss mouse at 10 mg/kg, sc after 1 hr; type: ADME, organism-based; design: dose 10 mg/kg, route subcutaneous; settings: read-out: BPR
[6] = Drug level in Swiss mouse brain at 10 mg/kg, sc after 0.5 hrs; type: ADME, organism-based; design: dose 10 mg/kg, route subcutaneous; settings: read-out: Drug uptake
[7] = Drug metabolism in human liver microsomes at 5 uM after 15 mins; type: ADME, Microsome; settings: read-out: Drug metabolism
CYP1A2 [8] = biological target: T2, CYP1A2 (Homo sapiens, UniProt P05177); experiment: Inhibition of CYP1A2 at 1 uM; type: ADME
T2 sequence (P05177 whole entry): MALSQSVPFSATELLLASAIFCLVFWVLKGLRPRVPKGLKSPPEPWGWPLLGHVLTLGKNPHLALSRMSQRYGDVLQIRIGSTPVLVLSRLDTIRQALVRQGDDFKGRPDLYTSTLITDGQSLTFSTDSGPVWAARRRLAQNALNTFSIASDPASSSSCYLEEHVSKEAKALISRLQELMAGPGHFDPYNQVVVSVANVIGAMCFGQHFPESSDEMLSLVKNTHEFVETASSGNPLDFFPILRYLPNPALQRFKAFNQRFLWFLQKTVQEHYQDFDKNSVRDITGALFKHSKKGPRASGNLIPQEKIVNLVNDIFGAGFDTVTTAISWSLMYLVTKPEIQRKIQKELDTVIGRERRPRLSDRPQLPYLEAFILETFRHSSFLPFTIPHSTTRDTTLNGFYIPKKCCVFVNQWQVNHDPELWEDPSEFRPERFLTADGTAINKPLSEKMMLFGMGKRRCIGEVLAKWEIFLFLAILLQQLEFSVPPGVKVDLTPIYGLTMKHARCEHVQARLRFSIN

CYP2D6 [9] = biological target: T3, CYP2D6 (Homo sapiens, UniProt P10635); experiment: Inhibition of CYP2D6 at 1 uM; type: ADME
CYP2C19 [10] = biological target: T4, CYP2C19 (Homo sapiens, UniProt P33261); experiment: Inhibition of CYP2C19 at 1 uM; type: ADME
[11] = biological target: T1, Metabotropic glutamate receptor 2; experiment: Positive allosteric modulation of human mGlu2 receptor expressed in CHO cells assessed as glutamate-induced [35S]GTPgammaS binding after 30 mins by liquid scintillation counting; type: functional, cell-based
Target sequence in this assay (Q14416 whole entry): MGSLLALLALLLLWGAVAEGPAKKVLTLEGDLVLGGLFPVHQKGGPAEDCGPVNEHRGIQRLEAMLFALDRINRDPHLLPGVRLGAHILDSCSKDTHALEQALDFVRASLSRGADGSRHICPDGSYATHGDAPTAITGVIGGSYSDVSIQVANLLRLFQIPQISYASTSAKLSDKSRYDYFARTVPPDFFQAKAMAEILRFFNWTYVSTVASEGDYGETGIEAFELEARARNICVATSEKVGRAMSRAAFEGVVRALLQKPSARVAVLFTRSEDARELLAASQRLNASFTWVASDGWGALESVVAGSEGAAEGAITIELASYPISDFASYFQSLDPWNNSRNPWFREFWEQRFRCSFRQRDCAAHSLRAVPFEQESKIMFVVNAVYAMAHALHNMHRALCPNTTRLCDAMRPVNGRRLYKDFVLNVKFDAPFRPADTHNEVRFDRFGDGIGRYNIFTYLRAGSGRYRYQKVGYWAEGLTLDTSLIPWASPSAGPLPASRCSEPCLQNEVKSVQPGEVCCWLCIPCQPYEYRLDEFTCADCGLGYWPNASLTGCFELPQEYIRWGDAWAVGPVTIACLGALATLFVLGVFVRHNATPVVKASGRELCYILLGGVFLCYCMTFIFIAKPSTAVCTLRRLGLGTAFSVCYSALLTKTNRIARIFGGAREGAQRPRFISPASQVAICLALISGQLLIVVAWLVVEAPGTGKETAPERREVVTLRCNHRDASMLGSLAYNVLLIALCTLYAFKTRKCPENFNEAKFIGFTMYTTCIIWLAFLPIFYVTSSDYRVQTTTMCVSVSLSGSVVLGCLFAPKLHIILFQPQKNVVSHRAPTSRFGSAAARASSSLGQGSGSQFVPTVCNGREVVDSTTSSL

CYP3A4 [12] = biological target: T5, CYP3A4 (Homo sapiens, UniProt P08684); experiment: Inhibition of CYP3A4 at 1 uM; type: ADME
CYP2C9 [13] = biological target: T6, CYP2C9 (Homo sapiens, UniProt P11712); experiment: Inhibition of CYP2C9 at 1 uM; type: ADME
[14] = Aqueous solubility of the compound in 20% HP-beta-CD buffer at pH 4; type: physicochemical
CYP3A4 [15] = biological target: T5, CYP3A4; experiment: Inhibition of CYP3A4 at 5 uM; type: ADME
[16] = Aqueous solubility of the compound in 20% HP-beta-CD buffer at pH 4 to 7.4; type: physicochemical
CYP2C9 [17] = biological target: T6, CYP2C9; experiment: Inhibition of CYP2C9 at 5 uM; type: ADME
CYP1A2 [18] = biological target: T2, CYP1A2; experiment: Inhibition of CYP1A2 at 5 uM; type: ADME
CYP2C19 [19] = biological target: T4, CYP2C19; experiment: Inhibition of CYP2C19 at 5 uM; type: ADME
CYP2D6 [20] = biological target: T3, CYP2D6; experiment: Inhibition of CYP2D6 at 5 uM; type: ADME
Rattus norvegicus [21] = experiment: Effect on sleep-awake cycle in Sprague-Dawley rat EEG model assessed as passive wake time at 10 mg/kg, sc by sleep-wake electroencephalogram assay; type: functional, organism-based; design: dose 10 mg/kg
[22] = biological target: Metabotropic glutamate receptor 1 (Homo sapiens) (UniProt Q13255); experiment: Antagonist activity at human mGluR1 expressed in HEK293 cells by fluorescent Ca2+ assay; type: functional, cell-based
[23] = biological target: T1, Metabotropic glutamate receptor 2; experiment: Positive allosteric modulation of human mGlu2 receptor expressed in CHO cells assessed as fold shift in glutamate-induced [35S]GTPgammaS binding at 3 uM after 30 mins by liquid scintillation counting; type: functional, cell-based
Target sequence in this assay (Q14416 19-872 limits assumed): as the sequence (Q14416 19-872 limits assumed) above

Rattus norvegicus [24] = experiment: Inhibition of rapid eye movement sleep in Sprague-Dawley rat EEG model at 10 mg/kg, sc up to 2 hrs by sleep-wake electroencephalogram assay; type: functional, organism-based; design: dose 10 mg/kg
[25] = biological target: Sodium-dependent noradrenaline transporter (Homo sapiens) (UniProt P23975); experiment: Binding affinity to norepinephrine transporter at 10 uM
[26] = biological target: Metabotropic glutamate receptor 4 (Homo sapiens) (UniProt Q14833); experiment: Antagonist activity at human mGluR4 expressed in L929 cells by [35S]GTPgammaS binding assay; type: functional, cell-based
[27] = biological target: Metabotropic glutamate receptor 3 (Homo sapiens) (UniProt Q14832); experiment: Agonist activity at human mGluR3 expressed in HEK293 cells by fluorescent Ca2+ assay; type: functional, cell-based
Rattus norvegicus [28] = experiment: Effect on sleep-awake cycle in Sprague-Dawley rat EEG model assessed as increase of REM sleep onset latency at 10 mg/kg, sc by sleep-wake electroencephalogram assay; type: functional, organism-based; design: dose 10 mg/kg
[29] = biological target: Metabotropic glutamate receptor 5 (Homo sapiens) (UniProt P41594); experiment: Antagonist activity at human mGluR5 expressed in HEK293 cells by fluorescent Ca2+ assay; type: functional, cell-based
Rattus norvegicus [30] = experiment: Effect on sleep-awake cycle in Sprague-Dawley rat EEG model assessed as intermediate state of sleep time at 10 mg/kg, sc by sleep-wake electroencephalogram assay; type: functional, organism-based; design: dose 10 mg/kg
[31] = biological target: Metabotropic glutamate receptor 1 (Homo sapiens) (UniProt Q13255); experiment: Agonist activity at human mGluR1 expressed in HEK293 cells by fluorescent Ca2+ assay; type: functional, cell-based
[32] = biological target: Metabotropic glutamate receptor 6 (Rattus norvegicus) (UniProt P35349); experiment: Antagonist activity at rat mGluR6 expressed in CHO cells by [35S]GTPgammaS binding assay; type: functional, cell-based
Rattus norvegicus [33] = experiment: Effect on sleep-awake cycle in Sprague-Dawley rat EEG model assessed as light sleep time at 10 mg/kg, sc by sleep-wake electroencephalogram assay; type: functional, organism-based; design: dose 10 mg/kg
[34] = biological target: Metabotropic glutamate receptor 5 (Homo sapiens) (UniProt P41594); experiment: Agonist activity at human mGluR5 expressed in HEK293 cells by fluorescent Ca2+ assay; type: functional, cell-based
Rattus norvegicus [35] = experiment: Effect on sleep-awake cycle in Sprague-Dawley rat EEG model assessed as deep sleep time at 10 mg/kg, sc by sleep-wake electroencephalogram assay; type: functional, organism-based; design: dose 10 mg/kg
[36] = biological target: Metabotropic glutamate receptor 6 (Rattus norvegicus) (UniProt P35349); experiment: Agonist activity at rat mGluR6 expressed in CHO cells by [35S]GTPgammaS binding assay; type: functional, cell-based
[37] = biological target: Metabotropic glutamate receptor 4 (Homo sapiens) (UniProt Q14833); experiment: Agonist activity at human mGluR4 expressed in L929 cells by [35S]GTPgammaS binding assay; type: functional, cell-based
[38] = biological target: Metabotropic glutamate receptor 3 (Homo sapiens) (UniProt Q14832); experiment: Antagonist activity at human mGluR3 expressed in HEK293 cells by fluorescent Ca2+ assay; type: functional, cell-based
Rattus norvegicus [39] = experiment: Effect on sleep-awake cycle in Sprague-Dawley rat EEG model assessed as active awake time at 10 mg/kg, sc by sleep-wake electroencephalogram assay; type: functional, organism-based; design: dose 10 mg/kg

hERG, sequence (Q12809 whole entry): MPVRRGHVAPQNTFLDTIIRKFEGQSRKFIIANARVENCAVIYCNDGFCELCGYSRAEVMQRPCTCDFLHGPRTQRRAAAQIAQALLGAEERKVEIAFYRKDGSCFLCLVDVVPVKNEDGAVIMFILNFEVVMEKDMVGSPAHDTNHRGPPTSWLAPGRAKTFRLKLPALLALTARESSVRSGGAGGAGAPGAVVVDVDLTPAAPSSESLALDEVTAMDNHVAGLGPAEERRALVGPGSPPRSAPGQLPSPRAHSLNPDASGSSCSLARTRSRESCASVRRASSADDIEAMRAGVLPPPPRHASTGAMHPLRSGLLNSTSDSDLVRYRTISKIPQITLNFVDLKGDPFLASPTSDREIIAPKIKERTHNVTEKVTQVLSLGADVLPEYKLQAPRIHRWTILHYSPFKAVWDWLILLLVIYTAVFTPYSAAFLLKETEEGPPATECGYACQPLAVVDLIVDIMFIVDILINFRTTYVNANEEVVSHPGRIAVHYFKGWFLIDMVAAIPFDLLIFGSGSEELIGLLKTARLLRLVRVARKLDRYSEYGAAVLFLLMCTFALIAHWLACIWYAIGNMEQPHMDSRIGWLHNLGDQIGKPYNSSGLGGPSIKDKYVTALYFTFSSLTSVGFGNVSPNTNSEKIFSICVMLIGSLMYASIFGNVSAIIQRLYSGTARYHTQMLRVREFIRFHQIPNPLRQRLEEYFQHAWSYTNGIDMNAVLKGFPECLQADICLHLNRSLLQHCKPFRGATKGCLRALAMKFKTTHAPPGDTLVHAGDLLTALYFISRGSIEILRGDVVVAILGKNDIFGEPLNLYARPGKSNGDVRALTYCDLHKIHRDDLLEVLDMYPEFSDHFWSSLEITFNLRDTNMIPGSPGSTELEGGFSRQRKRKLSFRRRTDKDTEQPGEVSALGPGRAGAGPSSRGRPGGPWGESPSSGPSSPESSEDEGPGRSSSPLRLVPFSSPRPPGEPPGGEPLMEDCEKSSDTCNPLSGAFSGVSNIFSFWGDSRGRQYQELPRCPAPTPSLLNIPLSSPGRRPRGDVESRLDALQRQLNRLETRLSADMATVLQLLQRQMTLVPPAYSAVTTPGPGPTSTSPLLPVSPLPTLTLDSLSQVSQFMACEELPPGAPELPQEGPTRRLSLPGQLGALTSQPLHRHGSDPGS
T6 sequence (P11712 whole entry): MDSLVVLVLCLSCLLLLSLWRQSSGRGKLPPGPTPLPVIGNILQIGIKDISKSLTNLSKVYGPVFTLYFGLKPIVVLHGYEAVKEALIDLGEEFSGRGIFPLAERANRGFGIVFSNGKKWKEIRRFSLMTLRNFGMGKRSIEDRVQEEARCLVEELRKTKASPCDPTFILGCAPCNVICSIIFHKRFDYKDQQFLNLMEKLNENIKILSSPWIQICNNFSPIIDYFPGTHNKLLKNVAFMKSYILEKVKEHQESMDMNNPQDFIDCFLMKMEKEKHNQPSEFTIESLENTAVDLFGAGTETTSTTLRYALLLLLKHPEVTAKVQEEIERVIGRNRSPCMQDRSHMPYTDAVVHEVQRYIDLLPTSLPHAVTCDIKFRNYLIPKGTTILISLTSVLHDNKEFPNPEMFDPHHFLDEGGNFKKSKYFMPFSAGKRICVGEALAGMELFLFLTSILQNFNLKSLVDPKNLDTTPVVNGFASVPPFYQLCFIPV
T4 sequence (P33261 whole entry): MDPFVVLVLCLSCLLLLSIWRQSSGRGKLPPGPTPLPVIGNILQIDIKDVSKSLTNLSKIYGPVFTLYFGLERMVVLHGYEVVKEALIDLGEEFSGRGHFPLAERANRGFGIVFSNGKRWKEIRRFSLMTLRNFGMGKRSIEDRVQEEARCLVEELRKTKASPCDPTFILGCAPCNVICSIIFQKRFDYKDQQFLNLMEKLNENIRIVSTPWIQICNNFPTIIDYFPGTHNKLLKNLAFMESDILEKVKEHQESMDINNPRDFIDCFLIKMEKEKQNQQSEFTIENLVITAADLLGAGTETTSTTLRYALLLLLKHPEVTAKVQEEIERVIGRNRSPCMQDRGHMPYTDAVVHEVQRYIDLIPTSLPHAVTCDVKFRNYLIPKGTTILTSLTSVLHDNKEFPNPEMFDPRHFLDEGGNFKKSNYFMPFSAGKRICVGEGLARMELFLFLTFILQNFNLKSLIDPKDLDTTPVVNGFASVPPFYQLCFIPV
T5 sequence (P08684 whole entry): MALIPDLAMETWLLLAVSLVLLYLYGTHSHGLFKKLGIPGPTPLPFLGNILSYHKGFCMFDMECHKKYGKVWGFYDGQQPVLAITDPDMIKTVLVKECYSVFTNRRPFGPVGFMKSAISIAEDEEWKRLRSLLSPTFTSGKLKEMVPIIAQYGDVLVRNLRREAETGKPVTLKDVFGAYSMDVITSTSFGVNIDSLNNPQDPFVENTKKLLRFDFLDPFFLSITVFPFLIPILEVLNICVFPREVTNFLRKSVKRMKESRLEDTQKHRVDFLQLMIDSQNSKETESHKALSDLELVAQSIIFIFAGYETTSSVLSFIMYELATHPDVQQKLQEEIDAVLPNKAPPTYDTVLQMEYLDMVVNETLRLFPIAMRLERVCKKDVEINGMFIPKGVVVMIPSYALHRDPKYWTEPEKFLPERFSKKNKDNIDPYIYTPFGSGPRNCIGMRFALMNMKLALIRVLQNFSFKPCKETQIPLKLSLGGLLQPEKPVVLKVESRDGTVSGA
T3 sequence (P10635 whole entry): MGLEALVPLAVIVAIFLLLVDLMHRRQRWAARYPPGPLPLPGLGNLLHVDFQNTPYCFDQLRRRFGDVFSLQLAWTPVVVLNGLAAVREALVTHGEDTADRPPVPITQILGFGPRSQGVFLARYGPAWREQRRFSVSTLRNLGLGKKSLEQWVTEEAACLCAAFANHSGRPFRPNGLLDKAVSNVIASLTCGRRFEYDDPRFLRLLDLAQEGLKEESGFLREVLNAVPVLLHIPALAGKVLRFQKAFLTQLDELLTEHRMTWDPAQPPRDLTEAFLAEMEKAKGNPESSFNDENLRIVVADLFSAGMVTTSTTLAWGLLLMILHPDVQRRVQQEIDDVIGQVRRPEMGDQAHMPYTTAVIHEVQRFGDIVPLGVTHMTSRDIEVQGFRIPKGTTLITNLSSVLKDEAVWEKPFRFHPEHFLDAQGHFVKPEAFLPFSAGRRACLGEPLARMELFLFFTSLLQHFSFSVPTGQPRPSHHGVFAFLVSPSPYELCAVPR

## CCCCn1ccc(-c2ccc(Oc3ccnc(C)c3)cc2)c(C#N)c1=O
[1]
  metabolised at 0.25 h, 5 µM: 44%
[2]
  concentration at 1.5 h: 592 ng/g
Brain
  Ratio: 2
hERG
  inhibition at 5 min, 3 µM: 53%
[3]
  concentration at 1 h: 994 ng/g
[4]
  Emax: 243%
[5]
  Kp at 1 h: 0.5
[6]
  concentration at 0.5 h: 1160 ng/g
[7]
  metabolised at 0.25 h, 5 µM: 31%

## CC(C)CCn1ccc(-c2ccc(Oc3ccncc3)cc2)c(C#N)c1=O
CYP1A2 [8]
  inhibition at 1 µM: 80%
CYP2D6 [9]
  inhibition at 1 µM: 84%
[1]
  metabolised at 0.25 h, 5 µM: 41%
CYP2C19 [10]
  inhibition at 1 µM: 97%
[11]
  EC50: 550 nM
CYP3A4 [12]
  inhibition at 1 µM: 70%
CYP2C9 [13]
  inhibition at 1 µM: 82%
[14]
  solubility: ≥ 4000 µg/mL
hERG
  inhibition at 5 min, 3 µM: 52%
[4]
  Emax: 245%
[7]
  metabolised at 0.25 h, 5 µM: 27%

## CC(C)CCn1ccc(-c2ccc(Oc3ccccc3)cc2)c(C#N)c1=O
CYP3A4 [15]
  inhibition at 5 µM: < 50%
[1]
  metabolised at 0.25 h, 5 µM: 32%
[16]
  solubility: > 1 µg/mL
[11]
  EC50: 42 nM
[4]
  Emax: 188%
[7]
  metabolised at 0.25 h, 5 µM: 36%

## Cc1cc(Oc2ccc(-c3ccn(CCC(C)C)c(=O)c3C#N)cc2)ccn1
CYP2C9 [17]
  inhibition at 5 µM: < 50%
CYP1A2 [18]
  inhibition at 5 µM: < 50%
[1]
  metabolised at 0.25 h, 5 µM: 47%
[11]
  EC50: 447 nM
CYP2C19 [19]
  inhibition at 5 µM: < 50%
CYP2D6 [20]
  inhibition at 5 µM: < 50%
[4]
  Emax: 266%
[7]
  metabolised at 0.25 h, 5 µM: 61%

## CCCCn1ccc(-c2ccc(Oc3ccnc(C)c3)c(F)c2)c(C#N)c1=O
Rattus norvegicus [21]
  Activity: inactive
[22]
  Activity: inactive
[1]
  metabolised at 0.25 h, 5 µM: 50%
[23]
  fold change (FC): 11
Rattus norvegicus [24]
  inhibition: Active
[25]
  Activity: > 50%
[26]
  Activity: inactive
[11]
  EC50: 316 nM
[27]
  Activity: inactive
Rattus norvegicus [28]
  Activity: Active
[29]
  Activity: inactive
Rattus norvegicus [30]
  Activity: inactive
[2]
  concentration at 1.5 h: 1020 ng/g
[31]
  Activity: inactive
[32]
  Activity: inactive
hERG
  inhibition at 5 min, 3 µM: 21%
Rattus norvegicus [33]
  Activity: inactive
[3]
  concentration at 1 h: 1120 ng/g
[34]
  Activity: inactive
Rattus norvegicus [35]
  Activity: inactive
[36]
  Activity: inactive
[4]
  Emax: 233%
[37]
  Activity: inactive
[38]
  Activity: inactive
[5]
  Kp at 1 h: 0.6
[6]
  concentration at 0.5 h: 1280 ng/g
Rattus norvegicus [39]
  Activity: inactive
[7]
  metabolised at 0.25 h, 5 µM: 33%

From ChEMBL document CHEMBL2029212, “Discovery of 1,4-disubstituted 3-cyano-2-pyridones: a new class of positive allosteric modulators of the metabotropic glutamate 2 receptor” (J Med Chem, 2012)
